Some test systems named below: A549 NSCLC; COLO 205 colon; HCC-2998 colon; NCI-H522 lung; OVCAR-8 ovarian; RPMI-8226 leukemia; SF-295 CNS; SK-OV-3 ovarian; SW-620 colon; TK-10 renal.
What all share (assay): growth of human tumour cells (NCI), 48 h

Values joined by “and” are separate entries in the source; they are usually repeats but may differ in a detail not shown here. Equal entries are not always repeated.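 Method: 48-hour compound exposure of cells in 96-well plates, five concentrations, linear interpolation of endpoints. At the GI50, growth is halved. TGI: total growth inhibition.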

Consider `O=c1[nH]c(=O)n([C@H]2CCCO2)cc1F`, for which the GI50 in the assay on A549 NSCLC is 625 µM; in the assay with COLO 205 colon, 1090 µM; in the assay on HCC-2998 colon, 1010 µM; in the assay with NCI-H522 lung, more than 2650 µM; with OVCAR-8 ovarian, 2270 µM; in the assay with RPMI-8226 leukemia it was 666 µM. Besides, the GI50 in the assay with SF-295 CNS was more than 4530 µM; in the assay with SK-OV-3 ovarian, more than 3620 µM; with SW-620 colon it was 1430 µM; with TK-10 renal it was 1880 µM. In addition, the TGI was more than 5000 µM in the assay with A549 NSCLC; more than 5000 µM in the assay on COLO 205 colon; more than 3020 µM in the assay on HCC-2998 colon; more than 5000 µM with NCI-H522 lung; more than 5000 µM with OVCAR-8 ovarian; more than 5000 µM in the assay with RPMI-8226 leukemia. For the same compound, the TGI with SF-295 CNS was more than 5000 µM; in the assay with SK-OV-3 ovarian, 984 µM and > 5000 µM; with SW-620 colon it was more than 5000 µM; with TK-10 renal it was more than 5000 µM.

In the case of `O=S1(=O)OCCOS(=O)(=O)C1Cl`, the TGI in the assay with A549 NSCLC, in the assay on COLO 205 colon, in the assay with HCC-2998 colon, with NCI-H522 lung, in the assay with OVCAR-8 ovarian and in the assay on RPMI-8226 leukemia was more than 100 µM in each case. Further, the TGI with SF-295 CNS, in the assay on SK-OV-3 ovarian, in the assay with SW-620 colon and with TK-10 renal was more than 100 µM in each case.

Take `COC(=O)c1cccc2cccc(C(=O)Nc3ccc(Cl)cc3)c12`: the TGI is more than 100 µM in the assay on A549 NSCLC; more than 62.3 µM with COLO 205 colon; more than 100 µM with HCC-2998 colon; more than 91 µM in the assay on NCI-H522 lung; more than 100 µM with OVCAR-8 ovarian; 33.7 µM in the assay with RPMI-8226 leukemia. Besides, the TGI in the assay on SF-295 CNS is more than 100 µM; in the assay with SK-OV-3 ovarian, more than 100 µM; in the assay on SW-620 colon, more than 66.8 µM; in the assay on TK-10 renal, more than 100 µM.

The values above are taken from PubChem BioAssay (NCI).
